Experimental data reported in publication PMC6259253, “Synthesis of Benzofuran Derivatives via Rearrangement and Their Inhibitory Activity on Acetylcholinesterase” (Molecules, 2010).

Molecular target: T1, AChE (Rattus norvegicus, UniProt P37136)
T1 construct: utilizing freshly prepared AChE from rats brain homogenate; from tissue; host or cells: rat whole brain except cerebellum, homogenate
Assay: biochemical
Conditions: AChE from rat brain homogenate; Ellman's method; means ± standard deviation of three independent experiments; read-out: AChE inhibition (IC50)
Protocol: AChE activity was measured in duplicate by the spectrophotometric method reported by Ellman et al. with some modifications, mainly involving the source of the enzyme and the reference compound. Rat brain homogenate was used as the enzyme source. The whole brain except for the cerebellum was homogenized in nine volumes of 100 mM sodium phosphate buffer (pH 7.0). The test compounds were dissolved in dimethyl sulphoxide (DMSO). The AChE activity was expressed as a change in OD at 412 nm.

T1 sequence (P37136 32-614): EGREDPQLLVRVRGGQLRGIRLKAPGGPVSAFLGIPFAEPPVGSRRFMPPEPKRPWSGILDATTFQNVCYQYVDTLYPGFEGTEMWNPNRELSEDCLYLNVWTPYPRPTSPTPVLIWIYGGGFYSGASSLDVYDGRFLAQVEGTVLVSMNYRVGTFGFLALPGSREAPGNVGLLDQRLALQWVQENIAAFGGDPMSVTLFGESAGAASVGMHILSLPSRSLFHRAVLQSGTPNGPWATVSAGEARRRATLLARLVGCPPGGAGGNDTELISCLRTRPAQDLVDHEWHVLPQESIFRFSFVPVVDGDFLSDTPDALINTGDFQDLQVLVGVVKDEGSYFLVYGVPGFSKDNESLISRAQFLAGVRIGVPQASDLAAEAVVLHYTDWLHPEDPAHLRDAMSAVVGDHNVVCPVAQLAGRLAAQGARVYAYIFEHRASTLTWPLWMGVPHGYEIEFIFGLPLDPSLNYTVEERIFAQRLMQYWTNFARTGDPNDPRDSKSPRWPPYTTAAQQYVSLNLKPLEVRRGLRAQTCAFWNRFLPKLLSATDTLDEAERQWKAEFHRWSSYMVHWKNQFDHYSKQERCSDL

| SMILES | IC50 [µM] |
| --- | --- |
| COc1ccc(N2CCN(C(=O)c3oc4ccc(C)cc4c3N3CCOCC3)CC2)cc1 [Compound A5, (4-(4-Methoxyphenyl)piperazin-1-yl) (5-methyl-3-morpholinobenzofuran-2-yl) methanone] | 21 ± 0.1 |
| Cc1ccc(N2CCN(C(=O)c3oc4ccc(C)cc4c3N3CCOCC3)CC2)cc1 [Compound A4, (4-p-Tolylpiperazin-1-yl)-(5-methyl-3-morpholinobenzofuran-2-yl) methanone] | 11 ± 0.2 |
| Cc1ccc2oc(C(=O)N3CCN(c4ccccc4C)CC3)c(N3CCOCC3)c2c1 [Compound A2, (4-o-Tolylpiperazin-1-yl)-(5-methyl-3-morpholinobenzofuran-2-yl) methanone] | 32 ± 0.1 |
